# Assay results taken from US7176228B2, “Pyrazole biphenylcarboxamides” (Bayer Cropscience AG, priority 2000, dated 2007).
# Experiment: logP determination by HPLC on a reversed-phase column (EEC Directive 79/831 Annex V.A8)
# Assay type: physicochemical
# Conditions: reversed-phase C18 HPLC column, reversed-phase column (C 18), 43° C., acidic range (a): 0.1% aqueous phosphoric acid, acetonitrile gradient 10% to 90%
# Description: [table] Calibration was carried out using unbranched alkan-2-ones (having 3 to 16 carbon atoms) with known logP values (determination of the logP values by the retention times using linear interpolation between two successive alkanones).
compound,measurement,value
CO/N=C/c1cccc(-c2ccccc2NC(=O)c2sc(C)nc2C(F)(F)F)c1 [Example 2],chromatographic logP,3.42
CCCCO/N=C\c1ccc(-c2ccccc2NC(=O)c2sc(C)nc2C(F)(F)F)cc1 [Example 3],chromatographic logP,4.65
Cc1nc(C(F)(F)F)c(C(=O)Nc2ccccc2-c2ccc(/C=N\OC(C)C)cc2)s1 [Example 5],chromatographic logP,4.23
CO/N=C\c1ccc(-c2ccccc2NC(=O)c2c(C)nn(C)c2Cl)cc1 [Example 17],chromatographic logP,3.24
CO/N=C\c1ccc(-c2ccccc2NC(=O)c2cn(C)cc2C)cc1 [Example 19],chromatographic logP,5.1
CCCCO/N=C/c1ccc(-c2ccccc2NC(=O)c2cn(C)nc2C(F)(F)F)cc1 [Example 22],chromatographic logP,4.26
CCCO/N=C/c1ccc(-c2ccccc2NC(=O)c2sc(C)nc2C(F)(F)F)cc1 [Example 23],chromatographic logP,4.26
CCCO/N=C/c1ccc(-c2ccccc2NC(=O)c2cn(C)nc2C(F)(F)F)cc1 [Example 28],chromatographic logP,3.86
Cc1nc(C(F)(F)F)c(C(=O)Nc2ccccc2-c2ccc(/C=N\O)cc2)s1 [Example 30],chromatographic logP,2.78
CO/N=C/c1ccc(-c2ccccc2NC(=O)c2sc(N(C)C)nc2C(F)(F)F)cc1 [Example 32],chromatographic logP,3.84
CO/N=C/c1ccc(-c2ccccc2NC(=O)c2cccnc2OC)cc1 [Example 33],chromatographic logP,4.12
CO/N=C/c1ccc(-c2ccccc2NC(=O)c2ccc(OC)nc2OC)cc1 [Example 34],chromatographic logP,4.73
CO/N=C/c1ccc(-c2ccccc2NC(=O)c2cccnc2C)cc1 [Example 35],chromatographic logP,2.04
CO/N=C/c1ccc(-c2ccccc2NC(=O)c2ccccc2C(F)(F)F)cc1 [Example 36],chromatographic logP,3.75
CO/N=C/c1ccc(-c2ccccc2NC(=O)c2sc(Cl)nc2C(F)(F)F)cc1 [Example 37],chromatographic logP,4.08
CO/N=C/c1ccc(-c2ccccc2NC(=O)c2ccccc2Cl)cc1 [Example 38],chromatographic logP,3.59
CO/N=C/c1ccc(-c2ccccc2NC(=O)c2ccccc2Br)cc1 [Example 39],chromatographic logP,3.61
CO/N=C/c1ccc(-c2ccccc2NC(=O)c2ccccc2C)cc1 [Example 40],chromatographic logP,3.56
Cn1cc(C(=O)Nc2ccccc2-c2ccc(/C=N\O)cc2)c(C(F)(F)F)n1 [Example 41],chromatographic logP,3.19
CO/N=C/c1ccc(-c2ccccc2NC(=O)c2ccoc2C)cc1 [Example 42],chromatographic logP,3.47
CO/N=C/c1cccc(-c2ccccc2NC(=O)c2ccoc2C)c1 [Example 43],chromatographic logP,3.47
CO/N=C/c1cccc(-c2ccccc2NC(=O)c2ccccc2C(F)(F)F)c1 [Example 44],chromatographic logP,3.76
CO/N=C/c1ccc(-c2ccccc2NC(=O)c2ccccc2I)cc1 [Example 45],chromatographic logP,3.73
CO/N=C/c1cccc(-c2ccccc2NC(=O)c2ccccc2I)c1 [Example 46],chromatographic logP,3.73
CO/N=C/c1ccc(-c2ccccc2NC(=O)c2sccc2C)cc1 [Example 47],chromatographic logP,3.86
CO/N=C/c1cccc(-c2ccccc2NC(=O)c2sccc2C)c1 [Example 48],chromatographic logP,3.84
CO/N=C/c1ccc(-c2ccccc2NC(=O)c2cn(C)nc2C(F)(F)F)cc1Cl [Example 49],chromatographic logP,3.54
CO/N=C\c1cc(-c2ccccc2NC(=O)c2cn(C)nc2C(F)(F)F)ccc1/C=N/OC [Example 50],chromatographic logP,3.36
CO/N=C/c1ccc(-c2c(C)cccc2NC(=O)c2sc(C)nc2C(F)(F)F)cc1 [Example 51],chromatographic logP,3.78
CO/N=C/c1cccc(-c2ccccc2NC(=O)c2cn(C)nc2C(F)(F)F)c1 [Example 52],chromatographic logP,3.25
CO/N=C/c1ccc(-c2ccccc2NC(=O)C2=C(C)OCCS2)cc1 [Example 53],chromatographic logP,3.75
CO/N=C/c1ccc(-c2ccccc2NC(=O)c2ccco2)cc1 [Example 54],chromatographic logP,3.2
CO/N=C/c1cccc(-c2ccccc2NC(=O)c2ccco2)c1 [Example 55],chromatographic logP,3.2
CO/N=C/c1ccc(-c2ccccc2NC(=O)c2sccc2Br)cc1 [Example 56],chromatographic logP,4.39
CO/N=C/c1cccc(-c2ccccc2NC(=O)c2sccc2Br)c1 [Example 57],chromatographic logP,4.39
CO/N=C/c1cccc(-c2ccccc2NC(=O)c2c(C)nn(C)c2Cl)c1 [Example 58],chromatographic logP,3.37
CO/N=C/c1cccc(-c2ccccc2NC(=O)C2=C(C)OCCS2)c1 [Example 59],chromatographic logP,3.64
CO/N=C/c1ccc(-c2ccccc2NC(=O)c2sc(C)nc2C(F)F)cc1 [Example 60],chromatographic logP,3.26
CO/N=C/c1cccc(-c2ccccc2NC(=O)c2sc(C)nc2C(F)F)c1 [Example 61],chromatographic logP,3.26
CO/N=C/c1ccc(-c2ccccc2NC(=O)c2ccc(C(F)(F)F)o2)cc1 [Example 62],chromatographic logP,3.99
CO/N=C/c1cccc(-c2ccccc2NC(=O)c2ccc(C(F)(F)F)o2)c1 [Example 63],chromatographic logP,4.02
CO/N=C/c1ccc(-c2ccccc2NC(=O)c2cc(C)oc2C(F)(F)F)cc1 [Example 64],chromatographic logP,3.94
CO/N=C/c1cccc(-c2ccccc2NC(=O)c2cc(C)oc2C(F)(F)F)c1 [Example 65],chromatographic logP,3.97
CO/N=C/c1ccc(-c2ccccc2NC(=O)c2cn(C)cc2C(C)C)cc1 [Example 66],chromatographic logP,3.82
CO/N=C/c1ccc(-c2ccccc2NC(=O)c2sc(Cl)nc2C)cc1 [Example 67],chromatographic logP,3.75
CO/N=C/c1cccc(-c2ccccc2NC(=O)c2sc(Cl)nc2C)c1 [Example 68],chromatographic logP,3.75
CO/N=C/c1cccc(-c2ccccc2NC(=O)c2nc(C)oc2C(F)(F)F)c1 [Example 70],chromatographic logP,4.45
CO/N=C/c1ccc(-c2ccccc2NC(=O)c2ccc(Br)o2)cc1 [Example 71],chromatographic logP,3.78
CO/N=C/c1cccc(-c2ccccc2NC(=O)c2ccc(Br)o2)c1 [Example 72],chromatographic logP,3.8
CO/N=C/c1cccc(-c2ccccc2NC(=O)c2sc(N(C)C)nc2C(F)(F)F)c1 [Example 73],chromatographic logP,4
CO/N=C/c1ccc(-c2ccccc2NC(=O)c2sc(C)nc2C(F)(F)F)cc1Cl [Example 74],chromatographic logP,3.95
CCCCO/N=C(/C)c1ccc(-c2ccccc2NC(=O)c2sc(C)nc2C(F)(F)F)cc1 [Example 77],chromatographic logP,4.77
CCc1nn(C)c(Cl)c1C(=O)Nc1ccccc1-c1ccc(/C=N/OC)cc1 [Example 95],chromatographic logP,3.68
CCc1nn(C)c(Cl)c1C(=O)Nc1ccccc1-c1cccc(/C=N/OC)c1 [Example 96],chromatographic logP,3.72
CO/N=C/c1ccc(-c2ccccc2NC(=O)c2c(C3CC3)nn(C)c2Cl)cc1 [Example 97],chromatographic logP,3.76
CO/N=C/c1cccc(-c2ccccc2NC(=O)c2c(C3CC3)nn(C)c2Cl)c1 [Example 98],chromatographic logP,3.81
CO/N=C/c1ccc(-c2ccccc2NC(=O)c2cc(Cl)sc2Cl)cc1 [Example 99],chromatographic logP,4.67
CO/N=C/c1cccc(-c2ccccc2NC(=O)c2cc(Cl)sc2Cl)c1 [Example 100],chromatographic logP,4.72
CO/N=C/c1ccc(-c2ccccc2NC(=O)c2ccc([N+](=O)[O-])o2)cc1 [Example 101],chromatographic logP,3.26
CO/N=C/c1cccc(-c2ccccc2NC(=O)c2ccc([N+](=O)[O-])o2)c1 [Example 102],chromatographic logP,3.26
CCn1nc(C)c(C(=O)Nc2ccccc2-c2ccc(/C=N/OC)cc2)c1Cl [Example 103],chromatographic logP,3.87
CO/N=C/c1ccc(-c2ccccc2NC(=O)c2ccsc2)cc1 [Example 108],chromatographic logP,3.1
CO/N=C/c1ccc(-c2ccccc2NC(=O)c2ccsc2C)cc1 [Example 110],chromatographic logP,3.58
CO/N=C/c1cccc(-c2ccccc2NC(=O)c2ccsc2C)c1 [Example 111],chromatographic logP,3.59
CO/N=C/c1ccc(-c2ccccc2NC(=O)c2cn(C)nc2C(F)(F)F)cc1F [Example 112],chromatographic logP,3.21
CO/N=C/c1ccc(-c2ccccc2NC(=O)c2cccnc2O)cc1 [Example 113],chromatographic logP,2.43
CO/N=C/c1ccc(-c2ccccc2NC(=O)c2cn(C)nc2C(F)F)cc1F [Example 114],chromatographic logP,3
CCCO/N=C/c1ccc(-c2ccccc2NC(=O)c2c(C)nn(C)c2Cl)cc1 [Example 118],chromatographic logP,4.22
